Laboratory results: patent US20050288222A1, “Methods for enhancing the bioavailability of a drug” (priority 2000, published 2005)
Values after ≈ are worked out from the molar mass of the structure shown. Values joined by “and” are separate entries in the source; they are usually repeats but may differ in a detail not shown here. Equal entries are not always repeated. Where two headings read alike, the source gives them in different places. Values belong to the compound of their own block, whether it stands above or below them. Non-standard residues stand in square brackets, D forms with d. Residues, ends and D or L forms follow the SMILES beside them. *: point of attachment. X1 = CC(C)C[C@H](C(=O)*)N(C)C

Tests used:
B-amyloid = B-amyloid (Homo sapiens, UniProt P05067); experiment: KD of potent B-amyloid aggregation inhibitors (Table II); assay type: binding
Sequence of B-amyloid (P05067 672-711 limits assumed): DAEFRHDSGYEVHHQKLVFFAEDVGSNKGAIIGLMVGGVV

[1] = rat, in vivo
Description: (§1) The drug cocktail was infused (100 μL/h) via a cannula in the external carotid artery so that the infusate was picked up by the blood and carried directly to the Circle of Willis/brain (via the left internal carotid artery, PTA occluded). At 30 minutes post cessation of the 10 minute IA infusion the left side of the brain was voided of blood by manually infusing 1 ml of saline via the cannula in the external carotid artery with the common carotid artery now ligated. The perfused left forebrain (choroid plexus removed) was subjected to capillary depiction (as described by Triguero et al., 1990) so as to produce brain supernatant that was void of blood vessels (as determined by alkaline phosphatase measurements).

[2] = rat, in vivo; remark: listed apart in the source
in vivo [3] = conditions: male, Sprague-Dawley, rat
Description: as §1

in vivo [4] = experiment: in vivo
[5] = in vivo
[6] = rat, in vivo; remark: listed apart in the source
[7] = rat, in vivo; remark: listed apart in the source
Excerpt: The perfused, ipsilateral, left forebrain (choroid plexus removed) was subjected to capillary depletion (as described by Triguero et al., 1990) so as to produce brain supernatant that was void of blood vessels (as determined by alkaline phosphatase measurements).

[8] = Biodistribution of 3H-PPI-558 +/- cyclosporin A (experiment 4, Table III); conditions: for Kidney (expressed as % administered): rat, sac t = 61 min
[9] = rat, in vivo; remark: listed apart in the source

SMILES: CC(C)C[C@@H](NC(=O)c1ccc(O)cc1)C(=O)N[C@@H](C(=O)N[C@H](Cc1ccccc1)C(=O)N[C@H](Cc1ccccc1)C(=O)N[C@H](C)C(N)=O)C(C)C [PPI-558, 4-Hydroxybenzoyl-D-Leu-D-Val-D-Phe-D-Phe-D-Ala-NH2]
capillary bound level [1]: approx. 250 nM equiv. | Cartass FOLD INCREASE [2]: 4 fold | Colon FOLD INCREASE [2]: 4 fold | Duodenum FOLD INCREASE [2]: 6 fold | Fat FOLD INCREASE [2]: 2 fold | Heart FOLD INCREASE [2]: 3 fold | Ileum FOLD INCREASE [2]: 2 fold | Liver FOLD INCREASE [2]: 0.4 fold | Lung FOLD INCREASE [2]: 1 fold | Muscle FOLD INCREASE [2]: 5 fold | Pancreas FOLD INCREASE [2]: 7 fold | Spleen FOLD INCREASE [2]: 1 fold | Tongue FOLD INCREASE [2]: 5 fold | Urine FOLD INCREASE [2]: 1 fold | blood at sac FOLD INCREASE [2]: 6 fold | levels within the small intestine in the presence of cyclosporin A [2]: higher levels | level at time molar at 0.5 h (in vivo [3]): > 100 nM | level at time molar (in vivo [4]): < 5 nM | capillary bound level [5]: very low levels | plasma levels in the presence of cyclosporin A [6]: elevated | solubility (physchem): 1 µg/mL (≈ 1.4 µM) | elevation of brain levels in the presence of cyclosporin A [7]: 10 fold | Kidney (expressed as % administered) ([8]; PPI-558/DMPC (1:30) approx. 3 mg/kg IV, without cyclosporin A, MEAN): 0.95 % administered | Kidney (expressed as % administered) ([8]; PPI-558/DMPC (1:30) approx. 3 mg/kg IV, without cyclosporin A, single animals): 0.7 % administered and 1.7 % administered and 0.5 % administered | Kidney (expressed as % administered) ([8]; cyclosporin A 50 mg/kg IV + PPI-558/DMPC (1:30), MEAN): 2.59 % administered | Kidney (expressed as % administered) ([8]; cyclosporin A 50 mg/kg IV + PPI-558/DMPC (1:30), single animals, 50 mg/kg): 2.5 % administered and 2.7 % administered | Kidney FOLD INCREASE ([8]; with cyclosporin A versus without): 3 fold

SMILES: CC(C)C[C@H](C(=O)N[C@@H](C(=O)N[C@H](Cc1ccccc1)C(=O)N[C@H](Cc1ccccc1)C(=O)N[C@H](CC(C)C)C(N)=O)C(C)C)N(C)C [PPI-1007, (CH3)2-lvffl-NH2] (X1-[dV][dF][dF][dL]-NH2)
solubility (physchem): 180 µg/mL (≈ 271 µM)

SMILES: CC(C)C[C@@H](N)C(=O)N[C@@H](C(=O)N[C@H](Cc1ccccc1)C(=O)NNC(=O)[C@@H](Cc1ccccc1)NC(=O)[C@H](NC(=O)[C@H](N)CC(C)C)C(C)C)C(C)C [PPI-1125, (H-lvf-NH-)2]
solubility (physchem): 5000 µg/mL (≈ 6660 µM)

Second part, the compound after the results:

solubility (physchem): 1490 µg/mL (≈ 2510 µM) | Kd (B-amyloid): 0.92 nM
SMILES: CC(C)C[C@@H](N)C(=O)N[C@@H](C(=O)N[C@H](Cc1ccccc1)C(=O)N[C@H](Cc1ccccc1)C(=O)N[C@H](C)C(N)=O)C(C)C [PPI-465, H-lvffa-NH2]

solubility (physchem): 2500 µg/mL (≈ 3930 µM) | Kd (B-amyloid): 0.29 nM
SMILES: CC(C)C[C@@H](N)C(=O)N[C@H](Cc1ccccc1)C(=O)N[C@H](Cc1ccccc1)C(=O)N[C@@H](C(=O)N[C@H](CC(C)C)C(N)=O)C(C)C [PPI-578, H-lffvl-NH2]

solubility (physchem): 970 µg/mL (≈ 1560 µM) | Kd (B-amyloid): 0.33 nM
SMILES: CC(C)C[C@@H](N)C(=O)N[C@@H](C(=O)N[C@H](Cc1ccccc1)C(=O)N[C@H](Cc1ccccc1)C(=O)N[C@@H](C(N)=O)C(C)C)C(C)C [PPI-657, H-D-Leu-D-Val-D-Phe-D-Phe-D-Val-NH2] (H-[dL][dV][dF][dF][dV]-NH2)

levels within the liver in the presence of cyclosporin A [9]: decreased levels | plasma levels in the presence of cyclosporin A [6]: elevated | solubility (physchem): 1000 µg/mL (≈ 1540 µM) | elevation of brain levels in the presence of cyclosporin A [7]: 5 fold
SMILES: CN[C@H](CC(C)C)C(=O)N[C@@H](C(=O)N[C@H](Cc1ccccc1)C(=O)N[C@H](Cc1ccccc1)C(=O)N[C@H](CC(C)C)C(N)=O)C(C)C [PPI-1019, N-methyl-(D-Leu-D-Val-D-Phe-D-Phe-D-Leu)-NH2]
